Paper PMC6930500, “Structure–Activity Relationships of 7-Substituted Dimethyltyrosine-Tetrahydroisoquinoline Opioid Peptidomimetics” (Molecules, 2019)

Experiments:
human DOR [1] = target: T1, human DOR (Homo sapiens, UniProt P41143); test: [3H]-diprenorphine competitive displacement binding, DOR; settings: membranes from CHO cells expressing human DOR; mean (SEM), n>=3 in duplicate
T1 construct: expressed in transfected cells; cell lines provided by Professor Lawrence Toll
Method: (§1) Each novel compound was evaluated for binding to and stimulation of KOR, MOR, and DOR. Binding affinity (Ki) was determined by competitive displacement of [^3H]-diprenorphine, a non-selective opioid receptor antagonist with similar affinity for each of the three receptors. Potency (EC50) and efficacy, expressed as percent stimulation compared to a standard agonist at each receptor, were determined by a [^35S]-GTPγS binding assay.
(§2) Membranes prepared from transfected Chinese Hamster Ovary cells stably expressing human KOR, human MOR, or human DOR were used for all assays. Cells were grown to confluence at 37 °C in 5% CO2 in 1:1 DMEM:F12 media with 10% v/v fetal bovine serum and 5% v/v penicillin/streptomycin. Membranes were prepared by washing confluent cells three times with ice cold phosphate-buffered saline (0.9% NaCl, 0.61 mM Na2HPO4, 0.38 mM KH2PO4, pH 7.4). Cells were detached from the plates by incubation in warm harvesting buffer (20 mM HEPES, 150 mM NaCl, 0.68 mM EDTA, pH 7.4) and pelleted by centrifugation at 200× g for 3 min. The cell pellet was suspended in ice-cold 50 mM Tris-HCl buffer, pH 7.4 and homogenized with a Tissue Tearor (Biospec Products, Inc, distributed by Cole-Parmer, Vernon Hills, IL, USA) for 20 s at setting 4. The homogenate was centrifuged at 20,000× g for 20 min at 4 °C, and the pellet was rehomogenized in 50 mM Tris-HCl pH 7.4 with a Tissue Tearor for 10 s at setting 2, followed by recentrifugation. The final pellet was resuspended in 50 mM Tris-HCl pH 7.4 and frozen in aliquots at −80 °C. Protein concentration was determined via Pierce BCA protein assay kit using bovine serum albumin as the standard.
(§3) Binding affinities for all test compounds at KOR, MOR, and DOR were determined by competitive displacement of [^3H]-diprenorphine as previously reported. In a 96-well plate format, cell membranes (5–10 µg of protein) and [^3H]-diprenorphine (0.2 nM) were incubated in Tris-HCl buffer (50 mM, pH 7.4) with various concentrations of test compound at 25 °C for 1 h, allowing the mixture to reach equilibrium. Nonspecific binding was determined using the opioid antagonist naloxone (10 µM), and total binding was determined using vehicle in the absence of competitive ligand. After incubation, membranes were filtered through Whatman GF/C 1.2 micron glass fiber filters and washed with 50 mM Tris-HCl buffer. The radioactivity remaining on the filters was then quantified by liquid scintillation counting after saturation with EcoLume liquid scintillation cocktail in a Microbeta 2450 (Perkin-Elmer, Waltham, MA, USA). Binding affinity (Ki) values were calculated using the Cheng–Prusoff equation via nonlinear regression analysis using GraphPad Prism software from at least three separate binding assays performed in duplicate.

human MOR [2] = target: T2, human MOR (Homo sapiens, UniProt P35372); test: [35S]-GTPγS binding stimulation, MOR; assay type: biochemical; settings: for Emax: versus 10 µM standard agonist DAMGO, dns = average maximal stimulation <10% at up to 10 µM; for Emax / EC50: mean (SEM), * n = 2; for EC50: CHO-human MOR membranes, dns = does not stimulate, average maximal stimulation <10% at up to 10 µM
T2 construct: expressed in transfected cells; cell lines provided by Professor Lawrence Toll
Method: as §1, §2
(§4) Agonist stimulation of KOR, MOR, and DOR by all test compounds was determined by [^35S]-guanosine 5′-O-[γ-thio]triphosphate ([^35S]-GTPγS) binding assays as previously reported. In a 96-well plate format, membranes from cells expressing opioid receptors as described above (10 µg of protein), [^35S]-GTPγS (0.1 nM), and guanosine diphosphate (30 µM) were incubated in GTPγS buffer (50 mM Tris-HCl, 100 mM NaCl, 5 mM MgCl2, 1 mM EDTA, pH 7.4) with various concentrations of test compound at 25 °C for 1 h. Basal stimulation was determined by incubation in the absence of any ligand. After incubation, membranes were filtered through Whatman GF/C 1.2 micron glass fiber filters and washed with GTPγS buffer with no EDTA. The radioactivity remaining on the filters was then quantified by liquid scintillation counting after saturation with EcoLume liquid scintillation cocktail in a Perkin-Elmer Microbeta 2450. Data are reported as percent stimulation compared to the effects of 10 µM standard agonists—U69,593 (KOR), DAMGO (MOR), or DPDPE (DOR). Percent stimulation and EC50 values were determined via nonlinear regression analysis using GraphPad Prism software from at least three separate assays performed in duplicate. Efficacy is expressed as percent stimulation relative to standard agonists.

human MOR [3] = target: T2, human MOR; test: [3H]-diprenorphine competitive displacement binding, MOR; settings: membranes from CHO cells expressing human MOR; mean (SEM), n>=3 in duplicate
Method: as §1, §2, §3

human DOR [4] = target: T1, human DOR; test: [35S]-GTPγS binding stimulation, DOR; assay type: biochemical; settings: mean (SEM), * n = 2; for % Stimulation DOR: versus 10 µM standard agonist DPDPE, dns = average maximal stimulation <10% at up to 10 µM
Method: as §1, §2, §4

human KOR [5] = target: T3, human KOR (Homo sapiens, UniProt P41145); test: [35S]-GTPγS binding stimulation, KOR; assay type: biochemical; settings: mean (SEM); for EC50 KOR / EC50: CHO-human KOR membranes, * n = 2, dns = does not stimulate, average maximal stimulation <10% at up to 10 µM; for % Stimulation KOR / Emax: versus 10 µM standard agonist U69,593, dns = average maximal stimulation <10% at up to 10 µM
T3 construct: expressed in transfected cells; cell lines provided by Professor Lawrence Toll
Method: as §1, §2, §4

human KOR [6] = target: T3, human KOR; test: [3H]-diprenorphine competitive displacement binding, KOR; settings: for Ki: membranes from CHO cells expressing human KOR, mean (SEM), n>=3 in duplicate
Method: as §1, §2, §3

[7] = CHO-human DOR membranes, dns = does not stimulate, average maximal stimulation <10% at up to 10 µM

Row | Compound | Ki (human DOR [1]) | Emax (human MOR [2]) | Ki (human MOR [3]) | EC50 DOR (human DOR [4]; [7]) | % Stimulation DOR (human DOR [4]) | EC50 KOR (human KOR [5]) | % Stimulation KOR (human KOR [5]) | Ki (human KOR [6]) | EC50 (human MOR [2]) | EC50 (human KOR [5]) | Emax (human KOR [5]) | EC50 (human DOR [4]; [7]) | more potent at MOR (versus KOR) (human MOR [2]; ratio of EC50 values, GTPγS) | selective for KOR and DOR over MOR (human KOR [6]; binding selectivity)
1 | Cc1cc(O)cc(C)c1C[C@H](N)C(=O)N1CCc2ccc(CN3CCCC3)cc2C1 [Compound 8m, (S)-2-amino-3-(4-hydroxy-2,6-dimethylphenyl)-1-(7-(pyrrolidin-1-ylmethyl)-3,4-dihydroisoquinolin-2(1H)-yl)propan-1-one] | 175 nM | 40% | 17 nM | dns * | dns * | dns | dns | 69 nM |  |  |  |  |  | 
2 | Cc1cc(O)cc(C)c1C[C@H](N)C(=O)N1CCc2ccc(Cc3ccnc4ccccc34)cc2C1 [Compound 8u, (S)-2-amino-3-(4-hydroxy-2,6-dimethylphenyl)-1-(7-(quinolin-4-ylmethyl)-3,4-dihydroisoquinolin-2(1H)-yl)propan-1-one] | 0.79 nM | 45% | 6.6 nM | dns * | dns * | dns | dns | 8.6 nM | 54 nM |  |  |  |  | 
3 | Cc1cc(O)cc(C)c1C[C@H](N)C(=O)N1CCc2ccc(Cc3cccc4ccncc34)cc2C1 [Compound 8r, (S)-2-amino-3-(4-hydroxy-2,6-dimethylphenyl)-1-(7-(isoquinolin-8-ylmethyl)-3,4-dihydroisoquinolin-2(1H)-yl)propan-1-one] | 0.69 nM | 36% | 1.8 nM | dns * | dns * |  |  | 2.7 nM | 24 nM | 65 nM | 42% |  |  | 
4 | COc1ccccc1Cc1ccc2c(c1)CN(C(=O)[C@@H](N)Cc1c(C)cc(O)cc1C)CC2 [Compound 8a, (S)-2-amino-3-(4-hydroxy-2,6-dimethylphenyl)-1-(7-(2-methoxybenzyl)-3,4-dihydroisoquinolin-2(1H)-yl)propan-1-one] | 2.7 nM | 37% | 3.7 nM | dns * | dns * |  |  | 3.1 nM | 92 nM | 130 nM | 72% |  |  | 
5 | Cc1cc(O)cc(C)c1C[C@H](N)C(=O)N1CCc2ccc(Cc3cncc4ccccc34)cc2C1 [Compound 8v, (S)-2-amino-3-(4-hydroxy-2,6-dimethylphenyl)-1-(7-(isoquinolin-4-ylmethyl)-3,4-dihydroisoquinolin-2(1H)-yl)propan-1-one] | 0.3 nM | 81% | 1.4 nM |  | 39 (7) % |  |  | 0.73 nM | 12 nM | 14 nM | 71% | 19 nM |  | 
6 | Cc1cc(O)cc(C)c1C[C@H](N)C(=O)N1CCc2ccc(CN3CCCCC3)cc2C1 [Compound 8l, (S)-2-amino-3-(4-hydroxy-2,6-dimethylphenyl)-1-(7-(piperidin-1-ylmethyl)-3,4-dihydroisoquinolin-2(1H)-yl)propan-1-one] | 87 nM | 34% | 4.7 nM | dns | dns | dns | dns | 29 nM | 845 nM |  |  |  |  | 
7 | Cc1cc(O)cc(C)c1C[C@H](N)C(=O)N1CCc2ccc(Cc3cccc4ccccc34)cc2C1 [Compound 8o, (S)-2-amino-3-(4-hydroxy-2,6-dimethylphenyl)-1-(7-(naphthalen-1-ylmethyl)-3,4-dihydroisoquinolin-2(1H)-yl)propan-1-one] | 3.2 nM | 59% | 5.2 nM | dns | dns |  |  | 4.7 nM | 132 nM | 349 nM | 83% |  |  | 
8 | Cc1cc(O)cc(C)c1C[C@H](N)C(=O)N1CCc2ccc(CN3CCOCC3)cc2C1 [Compound 8n, (S)-2-amino-3-(4-hydroxy-2,6-dimethylphenyl)-1-(7-(morpholinomethyl)-3,4-dihydroisoquinolin-2(1H)-yl)propan-1-one] | 5.6 nM | 38% | 39 nM | dns | dns | dns | dns | 43 nM | 860 nM |  |  |  |  | 
9 | Cc1cc(O)cc(C)c1C[C@H](N)C(=O)N1CCc2ccc(Cc3ccncc3)cc2C1 [Compound 8k, (S)-2-amino-3-(4-hydroxy-2,6-dimethylphenyl)-1-(7-(pyridin-4-ylmethyl)-3,4-dihydroisoquinolin-2(1H)-yl)propan-1-one] | 2.6 nM | 28% | 42 nM | dns | dns |  |  | 44 nM | 179 nM | 1180 nM | 44% |  |  | 
10 | Cc1cc(O)cc(C)c1C[C@H](N)C(=O)N1CCc2ccc(Cc3ccccc3C#N)cc2C1 [Compound 8d, (S)-2-((2-(2-amino-3-(4-hydroxy-2,6-dimethylphenyl)propanoyl)-1,2,3,4-tetrahydroisoquinolin-7-yl)methyl)benzonitrile] | 3.6 nM | 31% | 6.8 nM | dns | dns |  |  | 0.5 nM | 664 nM | 3.7 nM | 80% |  |  | 
11 | Cc1cc(O)cc(C)c1C[C@H](N)C(=O)N1CCc2ccc(Cc3cccc(C(F)(F)F)c3)cc2C1 [Compound 8g, (S)-2-amino-3-(4-hydroxy-2,6-dimethylphenyl)-1-(7-(3-(trifluoromethyl)benzyl)-3,4-dihydroisoquinolin-2(1H)-yl)propan-1-one] | 1.6 nM | 45% | 4.1 nM | dns | dns |  |  | 5.4 nM | 205 nM | 319 nM | 68% |  |  | 
12 | Cc1cc(O)cc(C)c1C[C@H](N)C(=O)N1CCc2ccc(Cc3cccc4ncccc34)cc2C1 [Compound 8t, (S)-2-amino-3-(4-hydroxy-2,6-dimethylphenyl)-1-(7-(quinolin-5-ylmethyl)-3,4-dihydroisoquinolin-2(1H)-yl)propan-1-one] | 1.2 nM | 31% | 4.6 nM | dns * | dns * |  |  | 1.5 nM | 54 nM | 58 nM | 69% |  | equipotent | approximately 3 fold
